In US10472333B2, “P2X4 receptor antagonist” (NIPPON CHEMIPHAR CO., LTD., priority 2013, dated 2019):
pIC50: −log10 of the molar value. Where a name gives a salt, the structure may show the parent alone.

molecular target: T1, human P2X4 receptor (Homo sapiens, UniProt Q99571); assay: P2X4 receptor antagonist activity, ATP-induced intracellular calcium (Fura-2 AM) in 1321N1 cells stably expressing human P2X4 receptor; format: cell-based; settings: not given
T1 sequence (Q99571 1-388): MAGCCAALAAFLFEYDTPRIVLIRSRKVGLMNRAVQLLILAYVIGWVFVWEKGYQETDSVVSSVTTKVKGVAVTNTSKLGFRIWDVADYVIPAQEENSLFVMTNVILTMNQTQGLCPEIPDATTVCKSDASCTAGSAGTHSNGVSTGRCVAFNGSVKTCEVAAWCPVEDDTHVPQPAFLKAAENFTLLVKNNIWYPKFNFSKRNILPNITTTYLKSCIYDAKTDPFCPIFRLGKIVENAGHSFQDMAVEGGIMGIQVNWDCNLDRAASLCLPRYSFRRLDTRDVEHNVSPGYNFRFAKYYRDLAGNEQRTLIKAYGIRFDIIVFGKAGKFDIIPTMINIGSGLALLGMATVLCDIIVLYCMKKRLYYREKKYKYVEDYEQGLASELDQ

Row | Structure (SMILES) | pIC50
1 | CC(C)c1ncccc1C(=O)Nc1ccc(C2=NCC(=O)Nc3c2ccc2ccccc32)cc1 [Example 23, 2-Isopropyl-N-[4-(2-oxo-2,3-dihydro-1H-naphtho[1,2-e][1,4]diazepin-5 yl)phenyl]nicotinamide dihydrochloride] | 5.64
2 | COc1ccccc1CC(=O)Nc1ccc(C2=NCC(=O)Nc3c2ccc2ccccc32)cc1 [Example 7, 2(2-Methoxyphenyl)-N-[4-(2-oxo-2,3-dihydro-1H-naphtho[1,2-e][1,4]-diazepin-5-yl)phenyl]acetamide] | 6.01
3 | O=C1CN=C(c2ccc(NC(=O)c3cccnc3N3CCCC3)cc2)c2ccc3ccccc3c2N1 [Example 21, N-[4-(2-Oxo-2,3-dihydro-1H-naphtho[1,2-e][1,4]-diazepin-5-yl)phenyl]-2-(pyrrolidin-1-yl)nicotinamide dihydrochloride] | 5.89
4 | O=C1CN=C(c2ccc(NC(=O)c3cccnc3N3CCOCC3)cc2)c2ccc3ccccc3c2N1 [Example 20, 2-(Morpholin-4-yl)-N-[4-(2-oxo-2,3-dihydro-1H-naphtho[1,2-e][1,4]-diazepin-5-yl)phenyl]nicotinamide dihydrochloride] | 5.60
5 | O=C1CN=C(c2ccc(NC(=O)c3cccnc3-n3cccc3)cc2)c2ccc3ccccc3c2N1 [Example 19, N-[4-(2-Oxo-2,3-dihydro-1H-naphtho[1,2-e][1,4]-diazepin-5-yl)phenyl]-2-(1H-pyrrol-1-yl)nicotinamide dihydrochloride] | 5.62
6 | CN(C)c1ccncc1C(=O)Nc1ccc(C2=NCC(=O)Nc3c2ccc2ccccc32)cc1 [Example 22, 4-(Dimethylamino)-N-[4-(2-oxo-2,3-dihydro-1H-naphtho[1,2-e][1,4]diazepin-5 yl)phenyl]nicotinamide dihydrochloride] | 5.82
7 | CCc1ncccc1C(=O)Nc1ccc(C2=NCC(=O)Nc3c2ccc2ccccc32)cc1 [Example 3, 2-Ethyl-N-[4-(2-oxo-2,3-dihydro-1H-naphtho[1,2-e][1,4]-diazepin-5-yl)phenyl]nicotinamide dihydrochloride] | 5.80
8 | CCc1c(O)cccc1C(=O)Nc1ccc(C2=NCC(=O)Nc3c2ccc2ccccc32)cc1 [Example 2, 2-Ethyl-3-hydroxy-N-[4-(2-oxo-2,3-dihydro-1H-naphtho[1,2-e][1,4]-diazepin-5-yl)phenyl]benzamide] | 6.11
9 | CCc1cccc(O)c1C(=O)Nc1ccc(C2=NCC(=O)Nc3c2ccc2ccccc32)cc1 [Example 4, 2-Ethyl-6-hydroxy-N-[4-(2-oxo-2,3-dihydro-1H-naphtho[1,2-e][1,4]-diazepin-5-yl)phenyl]benzamide] | 5.82
10 | CC(C)Nc1ncccc1C(=O)Nc1ccc(C2=NCC(=O)Nc3c2ccc2ccccc32)cc1 [Example 24, 2-(Isopropylamino)-N-[4-(2-oxo-2,3-dihydro-1H-naphtho[1,2-e][1,4]diazepin-5-yl)phenyl]nicotinamide dihydrochloride] | 5.07

same assay, conditions: Table 9; 1321N1 cells expressing human P2X4; test substance 15 minutes before ATP; read-out: Inhibitory activity IC50

Row | Structure (SMILES) | pIC50
11 | CN(C)c1ncccc1C(=O)Nc1ccc(N2C(=O)CC(=O)Nc3c2ccc2ccccc32)cc1 [Example 14, 2-(Dimethylamino)-N-[4-(2,4-dioxo-2,3-dihydro-1H-naphtho[1,2-b][1,4]diazepin-5(2H)-yl)phenyl]nicotinamide hydrochloride] | 6.23
12 | CC(C)(C)c1ccccc1C(=O)Nc1ccc(N2C(=O)CC(=O)Nc3c2ccc2ccccc32)cc1F [Example 12, 2-tert-Butyl-N-[4-(2,4-dioxo-3,4-dihydro-1H-naphtho[2,1-b][1,4]diazepin-5(2H)-yl)2-fluorophenyl]benzamide] | 6.43

same assay, conditions: Table 10; 1321N1 cells expressing human P2X4; test substance 15 minutes before ATP; read-out: Inhibitory activity IC50

Row | Structure (SMILES) | pIC50
13 | O=C1CC(=O)N(c2ccc(NC(=O)c3cccnc3N3CCOCC3)cc2)c2ccc3ccccc3c2N1 [Example 18, N-[4-(2,4-Dioxo-3,4-dihydro-1H-naphtho[1,2-b][1,4]-diazepin-5(2H)-yl)phenyl]-2-(morpholin-4-yl)-nicotinamide hydrochloride] | 5.89
